In patent publication EP0254663B1, “2-(2-Phosphonoxyphenyl-Carbonyloxy)benzoic acid, salts thereof, a process for the preparation thereof” (SUEROS, ANTIBIOTICOS Y LABORATORIO DE VACUNOTERAPIA, …, priority 1986, dated 1988):

Experiments:
[1] = acute oral toxicity; details: in vivo, read-out: Acute toxicity (LDso)
[2] = test system: carrageenin induced rat paw oedema; assay: carrageenin induced rat paw oedema; format: in vivo; details: 200 mg/kg
Protocol: PSS has a 49 % anti-inflammatory activity at 200 mg/kg on carrageenin induced rat paw oedema.

[3] = test system: death by respiratory distress caused by i.v. injection of arachidonic acid; assay: protection from death by respiratory distress caused by i.v. arachidonic acid; format: in vivo
Protocol: ASA provides 72 % protection at 50 mg/kg.

[4] = test system: adjuvant arthritis; assay: adjuvant arthritis inhibition; format: in vivo; details: 100-200 mg/kg/day, for 14 days
Protocol: At doses ranging from 100-200 mg/kg/day, for 14 days, PSS inhibits adjuvant arthritis by 40 - 50 %. At equal dose levels, inhibition by ASA is 0 - 39 %.

[5] = ulcerogenic activity; details: in vivo
Text: The ulcerogenic activity of PSS (ulcerogenic index - 3.16) is lower than that of ASA (UI = 10.54) or indo- methacin (Ul - 25.28).

[6] = test system: serum reducing activity (SH group levels); assay: correction of depressed serum reducing activity (SH group levels) in adjuvant arthritis; format: in vivo; details: 200 mg/kg/day
Protocol: In adjuvant arthritis, there is observed a depression of the serum reducing activity (SH group levels). PSS affords a 100 % correction at 200 mg/kg/day, while at equal dose levels ASA only affords a 60 % correction.

[7] = test system: motor activity inhibition produced by inflammatory pain; assay: correction of motor activity inhibition produced by inflammatory pain; format: in vivo; details: 200 mg/kg
Protocol: PSS and ASA afford a 90 % correction of the motor activity inhibition produced by inflammatory pain at 200 mg/kg.

[8] = test system: pain induced in mouse by i.p. injection of acetic acid; assay: pain induced in mouse by i.p. injection of acetic acid; format: in vivo; details: i.p. acetic acid 30 minutes after oral administration
Protocol: The inhibitory dose30 levels (ID-30) for pain induced in mouse by i.p. injection of acetic acid 30 minutes after oral administration were: 46.3, 98.15, 40 and 129.6 for PSS, PS (phosphosal), ASA and SS, respectively.

[9] = gastrointestinal hemorrhages, blood in faeces (radioisotope method); format: in vivo; details: 400 mg/kg, faeces excreted during the following 4 days
[10] = salicylic acid levels after continued administration for 14 days; format: in vivo; details: continued administration at equal dose levels for 14 days
[11] = test system: beer yeast induced fever; assay: beer yeast induced fever in the rat; format: in vivo

SMILES | LD50 [1] | anti-inflammatory activity [2] | protection from death by respiratory distress ([3]; 50 mg/kg) | inhibition of adjuvant arthritis [4] | ulcerogenic index [5] | correction of depression of the serum reducing activity (SH group levels) [6] | correction of the motor activity inhibition produced by inflammatory pain [7] | inhibitory dose30 levels (ID-30) [8] | Gastrointestinal hemorrhages, measured as µl blood in faeces [9] | salicylic acid levels [10] | antipyretic activity [11] | protection from death by respiratory distress ([3]; 100 mg/kg)
CC(=O)Oc1ccccc1C(=O)O [ASA, acetyl salycilic acid] | 1100 mg/kg | 61% | 72% | 0 - 39% | 10.54 | 60% | 90% | 40 |  |  |  | 
O=C(O)c1ccccc1OP(=O)(O)O [PS, salicylic acid phosphonate] |  |  |  |  |  |  | 65% | 98.15 |  |  |  | 
O=C(O)c1ccccc1OC(=O)c1ccccc1OP(=O)(O)O [PSS, 2-(2-phosphonoxyphenylcarbonyloxy) benzoic acid] | 1590 mg/kg | 49% |  | 40 - 50% | 3.16 | 100% | 90% | 46.3 | significantly lower than those caused by ASA | much higher salicylic acid levels for PSS than for ASA | superior to ASA and inferior to paracetamol | does not protect
O=C(Oc1ccccc1C(=O)O)c1ccccc1O [SS, 2-(2-hydroxyphenylcarbonyloxy) benzoic acid] |  | 24% |  |  |  |  | 32.6% | 129.6 |  |  |  | 
COc1ccc2c(c1)c(CC(=O)O)c(C)n2C(=O)c1ccc(Cl)cc1 [indo- methacin] |  |  |  |  | 25.28 |  |  |  |  |  |  | 
